Reference: the NIST ThermoML archive (doi:10.1021/je500682v)
Numbers after ± are expanded uncertainties.

Assays:
[1] = Crystal; DTA
[2] = Molar enthalpy of transition or fusion; conditions: Crystal; DSC

Normal melting temperature [1]	Molar enthalpy of transition or fusion [2]	SMILES
99.10 ± 0.99 °C	21.2 ± 1.2 kJ/mol	O=C(O)CCCC(=O)O [1,5-pentanedioic acid]
152.00 ± 0.99 °C	35.1 ± 1.9 kJ/mol	O=C(O)CCCCC(=O)O [1,6-hexanedioic acid]
185.50 ± 0.99 °C	32.7 ± 1.8 kJ/mol	O=C(O)CCC(=O)O [butanedioic acid]
